Calls of active or inactive are those of the source.

A word on the IC50: it is the concentration that gives 50% inhibition. A word on the EC50: it is the concentration at which the effect is half-maximal. Usually CC50 stands for the concentration that lowers cell viability or growth by half.

Assay [1] concerns the target Cytochrome P450 2C19 (Homo sapiens, UniProt P33261). As to the kind of experiment: qHTS Assay for Inhibitors and Substrates of Cytochrome P450 2C19. [Related pubchem assays: 410 ]. It is filed as ADME. The note with it: read-out: Potency.
The target of assay [2] is Cytochrome P450 2C9 (Homo sapiens, UniProt P11712). Conditions: Potency.
Sequence of Cytochrome P450 2C9 (P11712 whole entry): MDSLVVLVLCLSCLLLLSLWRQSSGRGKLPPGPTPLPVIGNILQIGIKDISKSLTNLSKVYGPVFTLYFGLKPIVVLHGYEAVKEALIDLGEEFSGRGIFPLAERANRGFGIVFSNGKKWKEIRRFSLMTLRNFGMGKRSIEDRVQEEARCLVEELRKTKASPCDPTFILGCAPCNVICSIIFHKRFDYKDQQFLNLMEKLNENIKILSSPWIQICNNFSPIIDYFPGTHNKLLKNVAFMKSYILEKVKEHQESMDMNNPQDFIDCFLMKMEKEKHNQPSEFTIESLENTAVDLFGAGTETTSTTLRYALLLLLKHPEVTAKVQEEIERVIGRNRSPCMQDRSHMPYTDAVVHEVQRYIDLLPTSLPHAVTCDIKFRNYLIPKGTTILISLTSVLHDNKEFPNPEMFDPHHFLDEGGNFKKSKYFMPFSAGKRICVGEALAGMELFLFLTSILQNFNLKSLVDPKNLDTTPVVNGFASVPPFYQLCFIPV
The subject of assay [3] is HeLa. The experiment in a line: viability loss in HeLa cells – cell-based, 24 h, cherry-picked samples, cytotoxicity control, dose response (AID 504726).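 Also: potency for cytotoxicity as loss of luminescence signal.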 Conditions: Homo sapiens. It is filed as functional.
Assay [4] deals with T1, ORF 73 (Human herpesvirus 8, UniProt O40947).
T1 sequence (O40947 whole entry): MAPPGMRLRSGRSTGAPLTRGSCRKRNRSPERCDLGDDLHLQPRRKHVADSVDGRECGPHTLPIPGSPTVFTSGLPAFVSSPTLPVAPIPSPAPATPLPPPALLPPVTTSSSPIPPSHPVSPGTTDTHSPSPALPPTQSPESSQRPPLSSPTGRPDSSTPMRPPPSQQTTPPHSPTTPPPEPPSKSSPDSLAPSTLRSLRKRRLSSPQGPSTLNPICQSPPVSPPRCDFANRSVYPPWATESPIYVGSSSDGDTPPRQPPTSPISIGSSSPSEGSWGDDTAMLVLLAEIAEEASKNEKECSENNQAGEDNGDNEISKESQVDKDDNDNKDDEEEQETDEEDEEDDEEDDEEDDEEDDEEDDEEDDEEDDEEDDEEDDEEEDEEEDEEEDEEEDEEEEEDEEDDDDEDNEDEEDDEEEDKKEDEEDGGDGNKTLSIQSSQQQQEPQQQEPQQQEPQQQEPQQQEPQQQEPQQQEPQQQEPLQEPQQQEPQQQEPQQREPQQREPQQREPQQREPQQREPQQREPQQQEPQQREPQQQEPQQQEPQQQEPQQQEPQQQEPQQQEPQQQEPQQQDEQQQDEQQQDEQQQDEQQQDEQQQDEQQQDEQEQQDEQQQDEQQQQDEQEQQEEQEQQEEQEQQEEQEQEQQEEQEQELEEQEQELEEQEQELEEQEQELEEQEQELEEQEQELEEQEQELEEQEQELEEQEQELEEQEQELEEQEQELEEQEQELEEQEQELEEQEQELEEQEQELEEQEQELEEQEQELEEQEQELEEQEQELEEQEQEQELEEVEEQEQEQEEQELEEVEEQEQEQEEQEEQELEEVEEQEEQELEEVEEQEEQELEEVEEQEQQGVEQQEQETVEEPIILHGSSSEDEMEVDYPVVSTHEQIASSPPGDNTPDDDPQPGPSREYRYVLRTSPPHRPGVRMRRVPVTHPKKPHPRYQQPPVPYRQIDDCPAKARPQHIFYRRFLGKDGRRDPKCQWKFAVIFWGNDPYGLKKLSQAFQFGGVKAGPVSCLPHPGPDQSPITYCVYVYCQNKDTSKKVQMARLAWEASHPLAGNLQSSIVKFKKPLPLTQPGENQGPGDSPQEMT
The experiment in a line: KSHV LANA DNA-binding disruption – biochemical, fluorescence polarization, cherry-picked samples, dose response (AID 504725).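 Also: fluorescence polarization of a labeled DNA duplex reporting LANA DNA binding; potency is for inhibitors that block LANA binding to the DNA.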 More on the design: species or system Human gammaherpesvirus 8. Background: Polarisation of emitted light reports the rotation of a fluorescent probe.

Assay [5] addresses Histone-lysine N-methyltransferase NSD2 (Homo sapiens, UniProt O96028). It is filed as biochemical.
Assay [6] has as its target T2, Hexokinase HKDC1 (Homo sapiens, UniProt Q2TB90).
T2 sequence (Q2TB90 whole entry): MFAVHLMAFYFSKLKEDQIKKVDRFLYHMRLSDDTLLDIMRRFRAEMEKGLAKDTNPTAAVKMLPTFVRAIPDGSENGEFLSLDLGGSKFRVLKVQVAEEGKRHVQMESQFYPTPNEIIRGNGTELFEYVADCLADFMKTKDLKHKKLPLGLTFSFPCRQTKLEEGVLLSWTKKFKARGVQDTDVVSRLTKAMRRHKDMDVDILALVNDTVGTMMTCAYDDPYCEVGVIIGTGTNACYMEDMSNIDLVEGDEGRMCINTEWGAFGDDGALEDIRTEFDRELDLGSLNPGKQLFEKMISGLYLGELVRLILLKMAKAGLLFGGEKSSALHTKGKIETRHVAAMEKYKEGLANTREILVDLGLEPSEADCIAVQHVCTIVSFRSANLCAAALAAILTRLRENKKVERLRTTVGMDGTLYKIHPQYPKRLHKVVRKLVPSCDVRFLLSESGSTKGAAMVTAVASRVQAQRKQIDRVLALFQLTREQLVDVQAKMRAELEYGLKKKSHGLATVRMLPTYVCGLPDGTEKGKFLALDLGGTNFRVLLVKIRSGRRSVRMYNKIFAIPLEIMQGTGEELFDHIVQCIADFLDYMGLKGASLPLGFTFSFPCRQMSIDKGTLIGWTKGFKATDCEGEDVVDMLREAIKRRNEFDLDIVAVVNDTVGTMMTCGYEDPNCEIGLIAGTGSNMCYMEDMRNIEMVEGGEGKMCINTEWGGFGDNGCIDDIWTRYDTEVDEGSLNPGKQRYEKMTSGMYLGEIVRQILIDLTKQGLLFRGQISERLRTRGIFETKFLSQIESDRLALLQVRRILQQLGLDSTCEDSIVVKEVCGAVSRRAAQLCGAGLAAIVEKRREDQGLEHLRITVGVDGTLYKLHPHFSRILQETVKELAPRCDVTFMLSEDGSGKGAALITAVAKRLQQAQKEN
The experiment in a line: inhibition of HKDC1 glucose phosphorylation – biochemical, W721R variant, dose response (AID 504729). It is filed as functional.

Assay [7] deals with Scavenger receptor class B member 1 (Mus musculus, UniProt Q61009). The experiment in a line: mouse SR-BI DiI-HDL uptake blockers – ldlA[mSR-BI] cells, fluorescence, cherry pick, dose response (AID 493194).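 Also: cellular uptake of fluorescent DiI-labeled HDL measured as cell fluorescence.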 It is filed as functional, cell-based.
Sequence of Scavenger receptor class B member 1 (Q61009 whole entry): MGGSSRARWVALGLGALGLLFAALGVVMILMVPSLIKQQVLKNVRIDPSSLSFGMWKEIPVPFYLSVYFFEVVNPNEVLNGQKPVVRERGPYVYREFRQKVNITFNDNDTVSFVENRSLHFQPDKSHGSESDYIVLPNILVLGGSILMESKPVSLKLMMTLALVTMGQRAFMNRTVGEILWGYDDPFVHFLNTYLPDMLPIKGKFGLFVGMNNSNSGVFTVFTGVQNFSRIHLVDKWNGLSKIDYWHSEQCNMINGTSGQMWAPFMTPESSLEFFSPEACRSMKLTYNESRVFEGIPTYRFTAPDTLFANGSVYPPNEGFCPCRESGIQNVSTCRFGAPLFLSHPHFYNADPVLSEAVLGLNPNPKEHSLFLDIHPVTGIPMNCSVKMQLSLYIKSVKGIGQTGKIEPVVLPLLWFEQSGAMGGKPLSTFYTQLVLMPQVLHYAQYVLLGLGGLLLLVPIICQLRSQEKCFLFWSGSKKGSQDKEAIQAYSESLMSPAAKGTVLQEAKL
The target in assay [8] is Cytochrome P450 2D6 (Homo sapiens, UniProt P10635). As to the kind of experiment: qHTS Assay for Inhibitors and Substrates of Cytochrome P450 2D6. [Related pubchem assays: 410 ]. It is filed as ADME. Conditions: read-out: Potency. A general note: qHTS replaces the single test concentration by a dilution series.
Sequence of Cytochrome P450 2D6 (P10635 whole entry): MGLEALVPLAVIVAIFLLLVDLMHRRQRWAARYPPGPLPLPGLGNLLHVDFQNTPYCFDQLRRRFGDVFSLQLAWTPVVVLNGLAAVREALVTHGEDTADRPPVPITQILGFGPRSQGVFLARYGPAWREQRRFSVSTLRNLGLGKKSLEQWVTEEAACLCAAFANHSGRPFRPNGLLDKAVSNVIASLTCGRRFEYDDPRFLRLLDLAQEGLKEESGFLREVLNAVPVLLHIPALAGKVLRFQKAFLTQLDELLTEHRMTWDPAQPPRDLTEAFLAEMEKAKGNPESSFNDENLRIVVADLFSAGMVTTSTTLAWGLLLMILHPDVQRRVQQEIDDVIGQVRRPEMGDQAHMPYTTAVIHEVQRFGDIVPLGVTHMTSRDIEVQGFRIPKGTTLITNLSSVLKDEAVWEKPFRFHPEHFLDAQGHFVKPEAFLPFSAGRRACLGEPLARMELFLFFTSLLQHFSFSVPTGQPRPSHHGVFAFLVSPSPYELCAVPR
Assay [9] has as its target Cytochrome P450 3A4 (Homo sapiens, UniProt P08684). The note with it: Potency.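 Also: confirmatory qHTS run detecting inhibitors and substrates of CYP3A4.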
Assay [10] is described as follows: luciferase reporter signal suppression in cells – H4 neuroglioma cells, luminescence, dose response (AID 1990). It is filed as functional, cell-based.
Assay [11] can be described thus: Luminescence Cell-Based Dose Response HTS to Identify Inhibitors of 5'UTR Stem-Loop Driven Prion Protein mRNA Translation in H4 Neuroglioblastoma Cells. [Related pubchem assays: 1827 (Project Summary), 1813 (Primary HTS)]. It is filed as functional.
A short description of assay [12]: alpha-synuclein stem-loop luciferase translation blockers – H4 neuroglioma cells, luminescence, confirmation (AID 1988). It is filed as functional, cell-based.
The test system of assay [13] is INS1. The experiment in a line: INS-1E survival protection against cytokine death – cell-based, luminescence, retest, dose response (AID 449756).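 Also: cell death triggered by IL-1 beta plus TNF-alpha plus IFN-gamma mixture; protective hits raise ATP signal compared with cytokine alone wells.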 It is filed as functional. The note with it: Rattus norvegicus.
Assay [14] relates to Streptococcus sp. 'group A'. The experiment in a line: Streptococcus pyogenes SK(-)GAS viability under kanamycin – luminescence, BacTiterGlo, confirmation, counter-screen for streptokinase expression inhibitor project, dose response (AID 1900). It is filed as functional, organism-based. (In general: Counterscreens check selectivity or assay interference.)
Assay [15] has as its target Serine/threonine-protein phosphatase PP1-alpha catalytic subunit (Homo sapiens, UniProt P62136). As to the kind of experiment: inhibition of protein phosphatase 1 activity – biochemical, fluorescence, dose response (AID 2403).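 Also: phosphatase turnover of OMFP into fluorescent 3-O-methylfluorescein.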
Assay [16] addresses T3, Streptokinase A (Streptococcus pyogenes serotype M1, UniProt P10520).
T3 sequence (P10520 whole entry): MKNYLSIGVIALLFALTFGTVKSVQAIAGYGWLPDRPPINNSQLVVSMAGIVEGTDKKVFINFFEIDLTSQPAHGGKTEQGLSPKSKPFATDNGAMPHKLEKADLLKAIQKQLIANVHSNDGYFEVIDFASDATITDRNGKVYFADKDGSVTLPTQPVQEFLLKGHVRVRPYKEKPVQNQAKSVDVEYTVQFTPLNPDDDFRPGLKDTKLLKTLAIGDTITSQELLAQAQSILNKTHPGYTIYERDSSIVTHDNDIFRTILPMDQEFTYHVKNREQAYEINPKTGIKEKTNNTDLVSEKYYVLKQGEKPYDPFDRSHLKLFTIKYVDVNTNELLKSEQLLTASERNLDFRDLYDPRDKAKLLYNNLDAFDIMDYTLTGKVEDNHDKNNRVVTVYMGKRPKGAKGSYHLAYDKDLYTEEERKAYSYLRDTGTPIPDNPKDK
As to the kind of experiment: viability-normalized secreted streptokinase activity reduction – plasminogen activation absorbance, OD405, dose response (AID 1914).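 Also: secreted streptokinase activity via plasminogen activation per viability signal from cell pellet.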 It is filed as functional, Streptococcus pyogenes M1 GAS.

The target of assay [17] is Serine/threonine-protein phosphatase (Homo sapiens, UniProt Q9BPW0). As to the kind of experiment: Counterscreen for inhibitors of PP1: fluorescence-based biochemical high throughput dose response assay to identify inhibitors of Protein Phosphatase 5 (PP5). [Related pubchem assays: 2034 (Summary (PP5 inhibitors)), 1987 (PP5 inhibitors in singlate), 2235 (PP1 inhibitors in singlate)].
Sequence of Serine/threonine-protein phosphatase (Q9BPW0 whole entry): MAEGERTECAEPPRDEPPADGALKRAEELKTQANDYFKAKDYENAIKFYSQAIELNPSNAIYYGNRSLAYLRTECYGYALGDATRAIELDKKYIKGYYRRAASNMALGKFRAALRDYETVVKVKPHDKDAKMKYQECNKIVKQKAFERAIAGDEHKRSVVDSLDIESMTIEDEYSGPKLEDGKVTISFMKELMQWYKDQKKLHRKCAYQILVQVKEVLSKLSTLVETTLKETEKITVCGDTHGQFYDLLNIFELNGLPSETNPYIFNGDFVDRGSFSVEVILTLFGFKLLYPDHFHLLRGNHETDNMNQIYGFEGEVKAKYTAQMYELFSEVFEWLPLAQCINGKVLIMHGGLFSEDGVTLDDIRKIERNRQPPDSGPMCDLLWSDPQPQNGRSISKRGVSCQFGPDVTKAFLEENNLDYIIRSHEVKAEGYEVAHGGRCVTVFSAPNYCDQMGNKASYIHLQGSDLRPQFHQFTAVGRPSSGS

Assay [18] relates to Streptococcus. The experiment in a line: GAS UMAA2166 growth inhibition – luminescence, BacTiterGlo, counter-screen for streptokinase expression inhibitor project, dose response (AID 1915).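 Also: potency for reduction of bacterial viability or growth.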 It is filed as functional, organism-based.
Assay [19] is described as follows: THP-1 cell cytotoxicity, dose response, cytotoxicity control for non-replicating M. tuberculosis project (AID 489025). It is filed as functional.
Assay [20] can be described thus: Vero E6 cell cytotoxicity, dose response, cytotoxicity control for non-replicating M. tuberculosis project, secondary assay (AID 492998). The note with it: Vero C1008. It is filed as functional, VeroE6.
Assay [21] deals with T4, Microphthalmia-associated transcription factor (Homo sapiens, UniProt O75030).
T4 sequence (O75030 whole entry): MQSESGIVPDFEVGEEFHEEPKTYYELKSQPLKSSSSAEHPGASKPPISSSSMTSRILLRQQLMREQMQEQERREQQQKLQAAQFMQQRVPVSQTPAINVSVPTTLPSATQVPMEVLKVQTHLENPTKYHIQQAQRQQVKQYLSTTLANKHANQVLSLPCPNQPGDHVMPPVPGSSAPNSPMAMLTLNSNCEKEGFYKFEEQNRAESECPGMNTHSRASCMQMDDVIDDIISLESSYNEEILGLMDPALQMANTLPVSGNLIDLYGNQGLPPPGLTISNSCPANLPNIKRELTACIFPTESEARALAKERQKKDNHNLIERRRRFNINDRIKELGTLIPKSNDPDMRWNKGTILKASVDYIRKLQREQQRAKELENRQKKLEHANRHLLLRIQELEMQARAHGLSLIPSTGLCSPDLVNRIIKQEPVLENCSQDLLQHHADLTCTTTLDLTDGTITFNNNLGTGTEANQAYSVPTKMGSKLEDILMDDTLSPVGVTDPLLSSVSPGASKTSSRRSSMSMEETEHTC
As to the kind of experiment: reducers of TRPM1 reporter luminescence, concentration series – cell-based, SK-MEL-5, cherry-picked, set 3, MITF inhibitor project, dose response (AID 493073).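 Also: SK-MEL-5 melanoma cells with luciferase driven by the MITF target TRPM1 promoter.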 It is filed as functional.

Assay [22] can be described thus: cells. It is filed as functional.
The subject of assay [23] is Vero. As to the kind of experiment: cells. The note with it: Chlorocebus sabaeus. It is filed as functional.

Sequence of Cytochrome P450 2C19 (P33261 whole entry): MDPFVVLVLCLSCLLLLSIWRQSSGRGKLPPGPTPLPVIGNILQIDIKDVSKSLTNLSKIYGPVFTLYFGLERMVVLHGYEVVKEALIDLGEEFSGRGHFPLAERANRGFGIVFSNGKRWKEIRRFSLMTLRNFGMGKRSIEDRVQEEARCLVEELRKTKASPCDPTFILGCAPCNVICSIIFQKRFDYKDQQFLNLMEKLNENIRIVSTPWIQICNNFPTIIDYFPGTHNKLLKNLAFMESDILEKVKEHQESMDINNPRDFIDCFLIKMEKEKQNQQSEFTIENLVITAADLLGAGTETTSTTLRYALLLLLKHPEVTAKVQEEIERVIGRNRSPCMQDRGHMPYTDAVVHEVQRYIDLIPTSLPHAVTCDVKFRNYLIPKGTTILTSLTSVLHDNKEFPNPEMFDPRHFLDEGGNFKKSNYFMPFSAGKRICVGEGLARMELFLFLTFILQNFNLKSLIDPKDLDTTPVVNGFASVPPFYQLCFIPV
Sequence of Serine/threonine-protein phosphatase PP1-alpha catalytic subunit (P62136 whole entry): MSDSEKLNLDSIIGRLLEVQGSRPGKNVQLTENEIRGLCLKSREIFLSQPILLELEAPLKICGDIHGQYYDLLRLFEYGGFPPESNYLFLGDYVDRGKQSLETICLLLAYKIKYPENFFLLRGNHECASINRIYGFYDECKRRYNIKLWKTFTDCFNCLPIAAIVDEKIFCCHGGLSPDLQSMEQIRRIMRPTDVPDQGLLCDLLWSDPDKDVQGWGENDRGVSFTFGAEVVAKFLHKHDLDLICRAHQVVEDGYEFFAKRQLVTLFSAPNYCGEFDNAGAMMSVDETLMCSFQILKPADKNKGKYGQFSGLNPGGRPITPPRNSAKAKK
Sequence of Histone-lysine N-methyltransferase NSD2 (O96028 whole entry): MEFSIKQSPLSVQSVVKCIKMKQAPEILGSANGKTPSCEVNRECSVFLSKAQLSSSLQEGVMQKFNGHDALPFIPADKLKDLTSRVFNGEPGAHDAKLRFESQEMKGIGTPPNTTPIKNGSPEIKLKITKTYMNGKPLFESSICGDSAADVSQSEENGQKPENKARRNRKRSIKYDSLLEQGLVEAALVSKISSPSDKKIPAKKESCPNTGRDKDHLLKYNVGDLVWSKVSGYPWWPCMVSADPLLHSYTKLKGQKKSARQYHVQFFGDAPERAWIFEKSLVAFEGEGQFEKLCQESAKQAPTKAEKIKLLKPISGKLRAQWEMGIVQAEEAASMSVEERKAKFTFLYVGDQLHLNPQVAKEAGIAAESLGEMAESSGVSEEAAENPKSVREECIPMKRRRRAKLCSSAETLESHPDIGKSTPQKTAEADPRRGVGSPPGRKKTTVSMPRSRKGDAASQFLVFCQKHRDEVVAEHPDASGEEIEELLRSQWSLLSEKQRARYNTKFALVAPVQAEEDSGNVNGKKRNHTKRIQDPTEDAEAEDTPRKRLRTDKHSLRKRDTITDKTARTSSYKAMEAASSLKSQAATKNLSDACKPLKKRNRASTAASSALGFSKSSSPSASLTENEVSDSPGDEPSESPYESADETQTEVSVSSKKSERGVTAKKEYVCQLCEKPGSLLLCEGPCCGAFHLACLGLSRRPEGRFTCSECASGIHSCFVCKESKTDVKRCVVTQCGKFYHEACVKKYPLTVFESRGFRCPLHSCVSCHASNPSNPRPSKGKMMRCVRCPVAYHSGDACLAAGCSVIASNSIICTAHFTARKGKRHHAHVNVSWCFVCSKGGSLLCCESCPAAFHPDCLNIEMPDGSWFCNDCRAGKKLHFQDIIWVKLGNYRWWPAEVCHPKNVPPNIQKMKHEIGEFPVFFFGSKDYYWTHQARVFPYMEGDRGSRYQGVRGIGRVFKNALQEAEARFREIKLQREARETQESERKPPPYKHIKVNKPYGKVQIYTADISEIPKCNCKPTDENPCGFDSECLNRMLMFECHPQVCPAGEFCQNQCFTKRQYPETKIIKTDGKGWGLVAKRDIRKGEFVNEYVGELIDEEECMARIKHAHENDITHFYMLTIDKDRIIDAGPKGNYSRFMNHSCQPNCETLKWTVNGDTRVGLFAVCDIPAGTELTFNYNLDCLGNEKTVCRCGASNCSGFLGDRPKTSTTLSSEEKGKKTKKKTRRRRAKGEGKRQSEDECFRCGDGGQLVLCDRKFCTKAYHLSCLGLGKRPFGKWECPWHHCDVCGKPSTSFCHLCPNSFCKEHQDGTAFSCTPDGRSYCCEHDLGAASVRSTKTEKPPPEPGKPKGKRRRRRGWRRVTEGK
Sequence of Cytochrome P450 3A4 (P08684 whole entry): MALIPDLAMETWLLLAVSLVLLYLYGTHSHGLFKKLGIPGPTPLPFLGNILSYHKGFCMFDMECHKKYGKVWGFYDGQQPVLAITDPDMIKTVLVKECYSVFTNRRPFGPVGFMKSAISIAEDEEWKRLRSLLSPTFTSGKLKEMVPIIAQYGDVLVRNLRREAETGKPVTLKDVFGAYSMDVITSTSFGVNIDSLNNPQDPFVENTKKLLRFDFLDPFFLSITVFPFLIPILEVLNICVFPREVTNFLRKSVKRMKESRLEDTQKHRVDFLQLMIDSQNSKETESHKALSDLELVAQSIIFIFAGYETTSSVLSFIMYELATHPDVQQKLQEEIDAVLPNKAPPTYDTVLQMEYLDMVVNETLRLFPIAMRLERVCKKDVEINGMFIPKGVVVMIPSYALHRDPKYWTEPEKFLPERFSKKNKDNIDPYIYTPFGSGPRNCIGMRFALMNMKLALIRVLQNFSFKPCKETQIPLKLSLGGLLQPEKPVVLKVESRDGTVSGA

For the compound `CC(=O)OCC1OC(C#Cc2ccc(C)cc2C)C=CC1OC(C)=O` (centres undefined), the results for the AC50 in [1] and in assay [2] were 1.58 µM (inconclusive) and 2.51 µM (inconclusive), respectively.

Turning to `O=C1CCCC(=O)C1=NNc1ccc(C(=O)O)cc1`, the AC50 in assay [3] was > 350 µM (inactive); in assay [4] it was 30.2 µM (active); in assay [5], 10.3 µM (active).

`CCOC(=O)c1ccc(NC(=O)CSc2ccc(-c3ccccn3)nn2)cc1`: the IC50 in assay [6] was 2.31 µM (active).

For the compound `O=C(c1cn(-c2ccccc2)nc1-c1cccc([N+](=O)[O-])c1)N1CCCCC1`, in assay [7], the AC50 was 23.6 µM (active).

With `COC(=O)NC(/C(C(=O)OC)=C(\C)NCc1ccccc1)c1cccs1` (centres undefined), the AC50 in assay [1] was 0.0316 µM (inconclusive); in [8], 3.98 µM (inconclusive); in assay [9], 3.98 µM (inconclusive); in [2] it was 7.94 µM (inconclusive).

`O=C(Nc1cccc(NC(=O)c2cc([N+](=O)[O-])ccc2Cl)n1)c1cc([N+](=O)[O-])ccc1Cl`: the EC50 in [10] is 15.3 µM (active); in [11], > 60 µM (not active); in assay [12], 8.35 µM (active). Also, the values for the AC50 in assay [7] and in [13] were 20.2 µM (active) and 6.4 µM (active), respectively.

Take `COc1ccc(/C=N/Nc2cc(C)nc(-n3nc(C)cc3C)n2)c(OC)c1`: the concentration for a half-maximal effect (EC50) in assay [14] was 9.67 µM (active); in [16] it was > 150 µM (not active); in [18], 13.8 µM (active). The IC50 was 6.68 µM (active) in assay [15], > 67 µM (not active) in [17] and 0.24 µM (active) in assay [22]. The results for the 50% cytotoxic concentration (CC50) in assay [19], in assay [20] and in [23] were 5.91 µM (active), 7.06 µM (active) and 19.8 µM (active), respectively. Moreover, the AC50 was 10.4 µM (active) in assay [21] and 2.67 µM (active) in assay [13].

Take `COc1ccc(-c2coc3cc(O)ccc3c2=O)cc1` [FORMONONETIN]: the AC50 in assay [1] is 7.94 µM (inconclusive); in assay [8] it was 10 µM (inconclusive).

The values above are taken from ChEMBL document CHEMBL1201862, “PubChem BioAssay data set” (2004).
